From patent US7723358B2, “Aroyl-O-piperidine derivatives for the treatment of diabetes-related problems” (Merck Patent GmbH, priority 2004, dated 2010)
pIC50: −log10 of the molar value.

What was measured:
[1] = target: T1, microsomal triglyceride transfer protein (MTP) (Mesocricetus auratus, UniProt P55158); test: Inhibition of MTP activity: transfer of [3H]-triolein from donor liposomes to biotinylated LDL, SPA; assay type: biochemical; details: MTP from golden hamster liver; incubation 18-24 hours at 37° C.; read-out: IC50, concentration that allows a 50% inhibition of MTP
T1 construct: The supernatant comprising the soluble MTP is dialysed against Tris/HCl 150 mM; from tissue; host or cells: golden hamster liver microsomes, deoxycholate-solubilised supernatant, dialysed
T1 sequence (P55158 19-895): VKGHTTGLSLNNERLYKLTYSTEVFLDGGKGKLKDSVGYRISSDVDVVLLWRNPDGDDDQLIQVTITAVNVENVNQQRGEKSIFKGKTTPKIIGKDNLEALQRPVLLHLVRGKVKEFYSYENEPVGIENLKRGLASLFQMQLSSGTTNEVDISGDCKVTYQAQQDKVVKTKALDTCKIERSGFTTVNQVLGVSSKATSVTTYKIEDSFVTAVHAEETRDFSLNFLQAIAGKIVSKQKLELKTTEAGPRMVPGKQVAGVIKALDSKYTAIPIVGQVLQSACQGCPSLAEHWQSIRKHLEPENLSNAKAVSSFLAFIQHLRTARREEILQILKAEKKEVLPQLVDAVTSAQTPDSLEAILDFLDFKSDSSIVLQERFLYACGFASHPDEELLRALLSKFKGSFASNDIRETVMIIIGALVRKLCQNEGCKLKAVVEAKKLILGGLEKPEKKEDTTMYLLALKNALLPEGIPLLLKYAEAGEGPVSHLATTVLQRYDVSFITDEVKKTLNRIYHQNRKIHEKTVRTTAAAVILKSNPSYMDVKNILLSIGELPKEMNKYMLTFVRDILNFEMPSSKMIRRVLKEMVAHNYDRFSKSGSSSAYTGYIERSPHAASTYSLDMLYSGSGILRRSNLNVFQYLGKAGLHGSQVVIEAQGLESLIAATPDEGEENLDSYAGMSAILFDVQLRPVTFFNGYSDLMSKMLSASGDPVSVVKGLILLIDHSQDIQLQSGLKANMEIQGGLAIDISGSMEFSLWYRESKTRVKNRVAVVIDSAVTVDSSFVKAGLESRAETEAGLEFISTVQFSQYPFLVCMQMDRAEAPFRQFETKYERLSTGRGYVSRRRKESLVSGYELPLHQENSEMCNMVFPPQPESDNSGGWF
Summary of the method: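 Soluble MTP was extracted with deoxycholate from golden hamster liver microsomes. It was incubated with [3H]-triolein/phosphatidylcholine donor liposomes, biotinylated LDL acceptors and compound in DMSO in HEPES/NaCl/BSA buffer, pH 7.4, for 18-24 h at 37° C. Transfer was read with streptavidin SPA beads, and IC50 was taken as 50% inhibition of transfer.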

[2] = tested on: apo B secretion in HepG2 cells; test: Secretion of apo B in the HepG2 human cell line (sandwich-ELISA); assay type: cell-based; details: 24 hours incubation, culture supernatant, read-out: IC50, concentration that produces a 50% inhibition of apo B secretion in the HepG2 cells
Experimental: Analysis of the Secretion of apo B in the HepG2 Human Cell Line:
The activity of a compound according to the invention can be evaluated by measuring the inhibition of apo B secretion in HepG2 cells.
The HepG2 cells (ECACC—No. 85011430) are used as model in the study of the in vitro hepatic secretion of lipoproteins (Dixon J. and Ginsberg H., J., Lipid. Res., 1993, 34, 167-179).
The HepG2 cells are cultured in Dulbecco's modified Eagle's medium comprising 10% foetal calf serum (DMEM and FBS—Gibco) in 96-well plates under an atmosphere of 5% carbon dioxide for 24 hours (about 70% confluence).
The test compounds are dissolved at a concentration of 2 or 10 mM in dimethyl sulfoxide (DMSO). Serial dilutions (1:3.16) are made in DMSO and are added (1:200—Robot Multimek Beckman) to the growth medium (200 μL) and then finally incubated for 24 hours in the various wells containing the HepG2 cells.
The 24-hour culture supernatant diluted to 1:5 (phosphate-buffered saline:PBS comprising 1% bovine serum albumin) is tested according to a sandwich-ELISA method specific for human apo B.
The results are expressed in terms of IC50, i.e. the concentration that produces a 50% inhibition of apo B secretion in the HepG2 cells.

Row | Structure (SMILES) | pIC50 [1] | pIC50 [2]
1 | COC(=O)c1ccccc1NC(=O)N1CCC(Oc2cccc(NC(=O)c3cccc(C)c3-c3ccc(OC(F)(F)F)cc3)c2)CC1 [Example 36, methyl 2-[[[4-[3-[[[6-methyl-4′-(trifluoro-methoxy)[1,1′-biphenyl]-2-yl]carbonyl]-amino]phenoxy]-1-piperidinyl]carbonyl]-amino]benzoate] | 7.29 | 7.17
2 | CCCCCCNC(=O)N1CCC(Oc2cccc(NC(=O)c3cccc(C)c3-c3ccc(OC(F)(F)F)cc3)c2)CC1 [Example 41, N-hexyl-4-[3-[[[6-methyl-4′-(trifluorometh-oxy)[1,1′-biphenyl]-2-yl]carbonyl]amino]-phenoxy]-1-piperidinecarboxamide] | 7.34 | 7.48
3 | Cc1cccc(C(=O)Nc2cccc(OC3CCN(C(=O)c4ccno4)CC3)c2)c1-c1ccc(OC(F)(F)F)cc1 [Example 100, N-[3-[[1-(5-isoxazolylcarbonyl)-4-piperi-dinyl]oxy]phenyl]-6-methyl-4′-(trifluoro-methoxy)[1,1′-biphenyl]-2-carboxamide] | 6.86 | 7.27
4 | COC(=O)c1ccc(NC(=O)N2CCC(Oc3cccc(NC(=O)c4cccc(C)c4-c4ccc(OC(F)(F)F)cc4)c3)CC2)cc1 [Example 55, methyl 4-[[[4-[3-[[[6-methyl-4′-(trifluoro-methoxy)[1,1′-biphenyl]-2-yl]carbonyl]-amino]phenoxy]-1-piperidinyl]carbonyl]-amino]benzoate] | 6.68 | 7.33
5 | Cc1cccc(C(=O)Nc2cccc(OC3CCN(C(=O)C(C)C)CC3)c2)c1-c1ccc(OC(F)(F)F)cc1 [Example 142, 6-methyl-N-[3-[[1-(2-methyl-1-oxopropyl)-4-piperidinyl]oxy]phenyl]-4′-(trifluorometh-oxy)[1,1′-biphenyl]-2-carboxamide] | 6.78 | 7.14
6 | COc1ccc(CC(=O)N2CCC(Oc3cccc(NC(=O)c4cccc(C)c4-c4ccc(OC(F)(F)F)cc4)c3)CC2)cc1 [Example 101, N-[3-[[1-[2-(4-methoxyphenyl)acetyl]-4-piperidinyl]oxy]phenyl]-6-methyl-4′-(trifluoromethoxy)[1,1′-biphenyl]-2-carboxamide] | 6.80 | 7.03
7 | Cc1cccc(C(=O)Nc2cccc(OC3CCN(S(=O)(=O)Cc4ccccc4)CC3)c2)c1-c1ccc(OC(F)(F)F)cc1 [Example 16] | 7.37 | 7.80
8 | C/C=C/C(=O)N1CCC(Oc2cccc(NC(=O)c3cccc(C)c3-c3ccc(OC(F)(F)F)cc3)c2)CC1 [Example 128, 6-methyl-N-[3-[[1-[(2E)-1-oxo-2-butenyl]-4-piperidinyl]oxy]phenyl]-4′-(trifluorometh-oxy)[1,1′-biphenyl]-2-carboxamide] | 7.00 | 7.65
9 | CC(=O)OCC(=O)N1CCC(Oc2cccc(NC(=O)c3cccc(C)c3-c3ccc(OC(F)(F)F)cc3)c2)CC1 [Example 102, N-[3-[[1-[2-(acetyloxy)acetyl]-4-piperidin-yl]oxy]phenyl]-6-methyl-4′-(trifluorometh-oxy)[1,1′-biphenyl]-2-carboxamide] | 6.67 | 7.59
10 | COC(=O)N1CCC(Oc2cccc(NC(=O)c3cccc(C)c3-c3ccc(OC(F)(F)F)cc3)c2)CC1 [Example 5, methyl 4-[3-[[[6-methyl-4′-(trifluoro-methoxy)[1,1′-biphenyl]-2-yl]carbonyl]-amino]phenoxy]-1-piperidinecarboxylate] | 7.35 | 9.10
11 | COc1ccc(C(=O)N2CCC(Oc3cccc(NC(=O)c4cccc(C)c4-c4ccc(OC(F)(F)F)cc4)c3)CC2)cc1OC [Example 103] | 6.89 | 7.16
12 | COCCOC(=O)N1CCC(Oc2cccc(NC(=O)c3ccccc3-c3ccc(OC(F)(F)F)cc3)c2)CC1 [Example 74] | 6.96 | 7.08
13 | COC(=O)N1CCC(Oc2cccc(NC(=O)c3ccccc3-c3ccc(C(F)(F)F)cc3)c2)CC1 [Example 72, methyl 4-[3-[[[4′-(trifluoromethyl)[1,1′-biphenyl]-2-yl]carbonyl]amino]phenoxy]-1-piperidinecarboxylate] | 7.37 | 8.34
14 | COCCOC(=O)N1CCC(Oc2cccc(NC(=O)c3cccc(C)c3-c3ccc(OC(F)(F)F)cc3)c2)CC1 [Example 73, 2-methoxyethyl 4-[3-[[[6-methyl-4′-(trifluoromethoxy)[1,1′-biphenyl]-2-yl]-carbonyl]amino]phenoxy]-1-piperidine-carboxylate] | 7.48 | 8.80
15 | COc1ccc(CNC(=O)N2CCC(Oc3cccc(NC(=O)c4cccc(C)c4-c4ccc(OC(F)(F)F)cc4)c3)CC2)cc1 [Example 52, N-[(4-methoxyphenyl)methyl]-4-[3-[[[6-methyl-4′-(trifluoromethoxy)[1,1′-biphenyl]-2-yl]carbonyl]amino]phenoxy]-1-piperidinecarboxamide] | 6.71 | 7.18
16 | Cc1cccc(C(=O)Nc2cccc(OC3CCN(S(=O)(=O)C(C)C)CC3)c2)c1-c1ccc(OC(F)(F)F)cc1 [Example 14, 6-methyl-N-[3-[[1-[(1-methyl-ethyl)sulfonyl]-4-piperidinyl]oxy]phenyl]-4′-(trifluoromethoxy)[1,1′-biphenyl]-2-carboxamide] | 6.94 | 7.20
17 | CCNC(=O)N1CCC(Oc2cccc(NC(=O)c3cccc(C)c3-c3ccc(OC(F)(F)F)cc3)c2)CC1 [Example 12, N-ethyl-4-[3-[[[6-methyl-4′-(trifluoro-methoxy)[1,1′-biphenyl]-2-yl]carbonyl]-amino]phenoxy]-1-piperidinecarboxamide] | 7.06 | 7.28
18 | Cc1cccc(C(=O)Nc2cccc(OC3CCN(C(=O)Nc4ccccc4)CC3)c2)c1-c1ccc(OC(F)(F)F)cc1 [Example 11, 4-[3-[[[6-methyl-4′-(trifluoromethoxy)[1,1′-biphenyl]-2-yl]carbonyl]amino]phenoxy]-N-phenyl-1-piperidinecarboxamide] | 6.46 | 
19 | Cc1cccc(C(=O)Nc2cccc(OC3CCN(C(=O)NC4CCCC4)CC3)c2)c1-c1ccc(OC(F)(F)F)cc1 [Example 57, N-cyclopentyl-4-[3-[[[6-methyl-4′-(trifluoro-methoxy)[1,1′-biphenyl]-2-yl]carbonyl]-amino]phenoxy]-1-piperidinecarboxamide] | 6.73 | 
20 | Cc1cccc(C(=O)Nc2cccc(OC3CCN(C(=O)c4cccnc4)CC3)c2)c1-c1ccc(OC(F)(F)F)cc1 [Example 106, 6-methyl-N-[3-[[1-(3-pyridinylcarbonyl)-4-piperidinyl]oxy]phenyl]-4′-(trifluorometh-oxy)[1,1′-biphenyl]-2-carboxamide] | 6.74 | 
21 | Cc1cccc(C(=O)Nc2cccc(OC3CCN(Cc4cccnc4)CC3)c2)c1-c1ccc(OC(F)(F)F)cc1 [Example 81, 6-methyl-N-[3-[[1-(3-pyridinylmethyl)-4-piperidinyl]oxy]phenyl]-4′-(trifluorometh-oxy)[1,1′-biphenyl]-2-carboxamide] | 6.50 | 
22 | O=C(Nc1cccc(OC2CCN(C(=O)c3ccno3)CC2)c1)c1ccccc1-c1ccc(OC(F)(F)F)cc1 [Example 115, N-[3-[[1-(5-isoxazolylcarbonyl)-4-piperi-dinyl]oxy]phenyl]-4′-(trifluoromethoxy)-[1,1′-biphenyl]-2-carboxamide] | 6.36 | 
